Values quoted from earlier work as cited in patent publication US20230210830A1 (ALKEM LABORATORIES LIMITED, priority 2022, published 2023).

Assays:
[1] = system: aneurysmal subarachnoid hemorrhage (aSAH); conditions: oral administration; patients after aSAH; Ehrlich et al. 2019
[2] = humans
[3] = Strongest Basic

bioavailability [2]: 12% | t1/2 ([2]; after oral administration): 1.5 h | solubility in organic solvents (ethanol, polyethylene glycol 400, dimethyl sulfoxide (DMSO), and chloroform): soluble | solubility in water (water): insoluble | pKa [3]: 5.41
SMILES: COCCOC(=O)C1=C(C)NC(C)=C(C(=O)OC(C)C)C1c1cccc([N+](=O)[O-])c1 (stereo not drawn) [nimodipine, isopropyl 2-methoxyethyl 1,4-dihydro-2,6-dimethyl-4-(m-nitrophenyl)-3,5-pyridinedicarboxylate]
clinical outcome [1]: improved clinical outcome
